Data from PMC7684313, “In vitro and in vivo pharmacological activity of minor cannabinoids isolated from Cannabis sativa” (Scientific Reports, 2020).
Values joined by “and” are separate entries in the source; they are usually repeats but may differ in a detail not shown here. Identical values can stand only once. “Also recorded” adds a separate entry of the source. Like-named read-outs stand apart in the source and are kept apart here. Marks after values point to notes of the source that are not given here.

Columns and labels:
hCB2R [1] = target: T1, hCB2R (Homo sapiens, UniProt P34972); experiment: Ligand bias between cAMP inhibition and βarrestin2 recruitment at hCB2R (operational model); assay type: cell-based; set-up: expressed in transfected cells; membranes; details: ∆∆LogR > 0 bias for inhibition of cAMP, < 0 bias for βarrestin2; CP55,940 reference agonist
Experimental: (§1) Figure 8 Analysis of ligand bias for phytocannabinoids at hCB1R (a) and hCB2R (b).
(§2) Concentration–response curves (CRC) were fit using non-linear regression with variable slope (4 parameters) and used to calculate EC50, Emin, and Emax (GraphPad, Prism, v. 8.0). […] In vivo data are presented as % MPE for catalepsy (MPE = 60 s) and anti-nociception (MPE = 20 s), °C for body temperature, and distance travelled (m) and % time in the centre quadrant in 5 min for OFT. Post-hoc analyses were performed using Tukey’s (one-way ANOVA) test. Homogeneity of variance was confirmed using Bartlett’s test. All data were evaluated for possible outliers using Grubb’s test in GraphPad.

hCB2R [2] = target: T1, hCB2R; experiment: hCB2R-dependent recruitment of βarrestin2 (PathHunter CHO cells); assay type: cell-based; set-up: expressed in transfected cells; membranes; details: CHO
hCB1R [3] = target: T2, hCB1R (Homo sapiens, UniProt P21554); experiment: Ligand bias between cAMP inhibition and βarrestin2 recruitment at hCB1R (operational model); assay type: cell-based; details: ∆∆LogR > 0 bias for inhibition of cAMP, < 0 bias for βarrestin2; CP55,940 reference agonist
T2 construct: expressed in transfected cells; membranes
Experimental: as §1, §2

hCB2R [4] = target: T1, hCB2R; experiment: biochemical
hCB1R [5] = target: T2, hCB1R; experiment: cell-based; assay type: cell-based
hCB2R [6] = target: T1, hCB2R; experiment: hCB2R-dependent inhibition of FSK-stimulated cAMP accumulation (HitHunter CHO cells); assay type: cell-based; set-up: expressed in transfected cells; membranes
C57BL/6 mice [7] = experiment: Nociception in the tail flick assay (tetrad); assay type: in vivo; details: 3 mg/kg i.p.; 15 min post-injection
Experimental: (§3) Asterisk colour matches the treatment group assessed.
as §2

C57BL/6 mice [8] = experiment: Time in the centre quadrant of the OFT (anxiety-like behaviour); assay type: in vivo; details: 10 mg/kg i.p.; 1 h post-injection
Experimental: as §3, §2

hCB2R [9] = target: T1, hCB2R; experiment: [^3H]CP55,940 displacement from hCB2R CHO cell membranes
hCB1R [10] = target: T2, hCB1R; experiment: biochemical; assay type: binding
CB1R = details: read-out: affinity for CB1R (previous reports); cited from earlier work
hCB1R [11] = target: T2, hCB1R; experiment: cell-based; details: CHO; read-out: hCB1R Emax, recruitment of βarrestin2
CB2R = details: read-out: affinity for CB2R (previous reports); cited from earlier work

T1 sequence (P34972 whole entry): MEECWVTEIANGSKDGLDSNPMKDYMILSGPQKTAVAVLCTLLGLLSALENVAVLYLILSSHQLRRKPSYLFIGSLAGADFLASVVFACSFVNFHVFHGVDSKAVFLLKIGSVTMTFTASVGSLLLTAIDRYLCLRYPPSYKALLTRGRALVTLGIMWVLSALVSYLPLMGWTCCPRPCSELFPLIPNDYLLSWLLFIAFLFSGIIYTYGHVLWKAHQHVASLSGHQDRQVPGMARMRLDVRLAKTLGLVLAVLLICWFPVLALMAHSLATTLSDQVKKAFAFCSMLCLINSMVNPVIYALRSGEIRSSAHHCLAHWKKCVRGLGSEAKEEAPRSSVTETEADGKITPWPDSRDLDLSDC
T2 sequence (P21554 whole entry): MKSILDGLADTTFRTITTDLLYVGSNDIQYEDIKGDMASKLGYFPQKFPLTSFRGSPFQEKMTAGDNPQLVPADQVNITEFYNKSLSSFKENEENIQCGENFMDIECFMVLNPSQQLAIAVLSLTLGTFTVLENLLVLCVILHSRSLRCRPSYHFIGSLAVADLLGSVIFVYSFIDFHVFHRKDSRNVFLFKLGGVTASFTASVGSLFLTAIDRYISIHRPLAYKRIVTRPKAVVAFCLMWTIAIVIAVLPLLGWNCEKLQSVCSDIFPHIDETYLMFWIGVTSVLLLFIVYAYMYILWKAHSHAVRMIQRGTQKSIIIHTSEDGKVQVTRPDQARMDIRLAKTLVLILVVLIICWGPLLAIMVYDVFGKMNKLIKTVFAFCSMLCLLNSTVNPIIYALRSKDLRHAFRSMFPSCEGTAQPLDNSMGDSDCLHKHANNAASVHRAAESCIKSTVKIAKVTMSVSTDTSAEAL

In the case of `CCCCCc1cc(O)c(C/C=C(\C)CCC=C(C)C)c(O)c1` [CBG, cannabigerol], the “ligand bias at hCB2R (∆∆LogR), in words” value (hCB2R [1]) is reported as “bias for inhibition of cAMP relative to βarrestin2”, the Emax (hCB2R [2]) is reported as 22 ± 1.2% and the “ligand bias at hCB1R (∆∆LogR), in words” value (hCB1R [3]) is reported as “bias for the inhibition of cAMP relative to βarrestin2”. For the same compound, the Ki (hCB2R [4]) was 500 nM and 490 nM, the “agonist activity in hCB1R cAMP inhibition, in words” value (hCB1R [5]) was “weak partial agonist” and the Emax (hCB1R [5]; CHO, read-out: hCB1R Emax, inhibition of FSK-stimulated cAMP accumulation) was 68 ± 2.4%. For the same compound, the EC50 (hCB1R [5]; HitHunter CHO hCB1R cells, 90 min, 95% CI in brackets, read-out: hCB1R EC50, inhibition of FSK-stimulated cAMP accumulation) was 120 nM, the “agonist activity in hCB2R cAMP inhibition, in words” value (hCB2R [6]; 0.1 nM–10 µM, relative to CP55,940) was “weak partial agonist” and the Emax (hCB2R [6]; CHO) was 39 ± 11%. For the same compound, the EC50 (hCB2R [6]; HitHunter CHO hCB2R cells, 90 min, 95% CI in brackets, read-out: hCB2R EC50, inhibition of FSK-stimulated cAMP accumulation) was 130 nM, the “anti-nociceptive effect (tail flick latency), in words” value (C57BL/6 mice [7]) was “weak anti-nociceptive effect; also recorded: small but statistically significant anti-nociceptive effect” and the “time in the central quadrant of the OFT (modelled anxiolytic effect), in words” value (C57BL/6 mice [8]) was “anxiolytic-like effect”. For the same compound, the “hCB2R Emin” value (hCB2R [9]; bottom of the concentration–response curve of [^3H]CP55,940 displacement, %CP55,940 response, mean ± SEM) was 32 ± 8.1%, the “extent of [^3H]CP55,940 displacement from hCB2R, in words” value (hCB2R [9]; concentration range 0.1 nM–10 µM) was “displaced [^3H]CP55,940 from hCB2R to an extent that was not different from CP55,940” and the Ki (hCB1R [10]) was 1300 nM. The “extent of [^3H]CP55,940 displacement from hCB1R, in words” value (hCB1R [10]) was “weakly displaced [^3H]CP55,940 at concentrations ≥ 1 µM”, the “hCB1R Emin” value (hCB1R [10]) was 49 ± 7.2*^ % and the Ki (CB1R) was greater than 1000 nM. The Emax (hCB1R [11]) was 0.41 ± 0.45% and the Ki (CB2R) was greater than 1000 nM.
